ChEMBL document CHEMBL2406903, “FPRL-1 Receptor Modulators May Provide Treatment for Inflammation” (ACS Med Chem Lett, 2013)

The compounds below were run against T1, N-formyl peptide receptor 2 (Homo sapiens) (UniProt P25090) (assay: Modulation of FPRL1 (unknown origin) expressed in CHO-Ga16 cells assessed as induction of calcium activity at 0.61 to 10000 nM by FLIPR assay relative to control).
T1 sequence (whole entry): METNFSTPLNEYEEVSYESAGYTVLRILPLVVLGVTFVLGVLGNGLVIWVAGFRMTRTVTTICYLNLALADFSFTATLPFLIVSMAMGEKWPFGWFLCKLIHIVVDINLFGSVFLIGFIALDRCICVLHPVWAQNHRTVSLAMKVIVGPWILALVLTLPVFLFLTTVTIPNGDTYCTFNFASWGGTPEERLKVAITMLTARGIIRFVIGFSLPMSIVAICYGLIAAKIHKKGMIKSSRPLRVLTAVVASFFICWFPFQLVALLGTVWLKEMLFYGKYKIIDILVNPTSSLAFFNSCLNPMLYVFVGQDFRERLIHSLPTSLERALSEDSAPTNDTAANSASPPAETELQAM
Type: functional, cell-based

Row | Compound | fold change (FC)
1 | CC(C)C[C@H](NC(=O)Nc1ccc(Br)cc1)C(=O)NC(C)(C)C(=O)O | 0.96
2 | CC[C@@H](C)[C@@H](NC(=O)Nc1ccc(Br)cc1)C(=O)NCC(=O)O | 0.45
3 | CC(C)C[C@H](NC(=O)Nc1ccc(C(F)(F)F)cc1)C(=O)NC(C)(C)C(=O)O | 0.92
